In patent US12624057B2, “Bisphosphonate quinolone conjugates and uses thereof” (BIOVINC, LLC, priority 2016, dated 2026):
Entries after “also recorded” stand apart in the source; their conditions may differ. Where two headings read alike, the source gives them in different places.

Tests used:
[1] = system: biofilms of P. aeruginosa strain ATCC-15442; assay: Preformed biofilms on HA discs, P. aeruginosa; format: cell-based, Pseudomonas aeruginosa
Description: Antimicrobial susceptibility testing of BP-ciprofloxacin against preformed biofilms of S. aureus strain ATCC-6538 and P. aeruginosa strain ATCC-15442: Strains cultured on appropriate agar plates (Columbia agar plate for S. aureus; MacConkey agar plate for P. aeruginosa) were transferred to liquid microbiological media and incubated for 24 h/37° C. under aerobic conditions. After incubation, strains were diluted to the density of 1 MF. The microbial dilutions were introduced to wells of 24-well plates containing HA discs as a substrate, or simply to polystyrene wells where the bottom surface of the wells served as the substrate for biofilm development. Strains were incubated at 37° C. for 4 hrs. Next, the microbe-containing solutions were removed from the wells. The surfaces, HA discs and polystyrene plates, were gently rinsed to leave adhered cells and to remove planktonic or loosely-bound microbes. Surfaces prepared in this manner were immersed in fresh TSB medium containing 0.24-125 mg/L of BP-ciprofloxacin conjugate. After 24 hrs of incubation at 37° C. the surfaces were rinsed using physiological saline solution and transferred to 1 mL of 0.5% saponin (Sigma-Aldrich, St Louis, MO). The surfaces were vortex-mixed vigorously for 1 minute to detach cells. Subsequently, all microbial suspensions were diluted 10 to 10^9 times. Each dilution ([…]) was cultured on the appropriate stable medium (MacConkey, Columbia for P. aeruginosa and S. aureus, respectively) and incubated at 37-C for 24 hours. After this time, the microbial colonies were counted and the number of cells forming biofilm was assessed. Results were presented as the mean number of CFU per square millimeter surface±standard error of the mean. To estimate the exact surface area of HA discs, x-ray tomographic analysis was applied. For estimation of the area of test plate bottoms, the equation for circle area: πr2 was applied.
Antimicrobial susceptibility testing of 6 against preformed biofilms of S. aureus strain ATCC-6538 and P. aeruginosa strain ATCC-15442: Strains cultured on appropriate agar plates (Columbia agar plate for S. aureus; MacConkey agar plate for P. aeruginosa) were transferred to liquid microbiological media and incubated for 24 hrs/37° C. under aerobic conditions. After incubation, strains were diluted to the density of 1 MF. The microbial dilutions were introduced to wells of 24-well plates containing HA discs as a substrate, or simply to polystyrene wells where the bottom surface of the wells served as the substrate for biofilm development. Strains were incubated at 37° C. for 4 hrs. Next, the microbe-containing solutions were removed from the wells. The surfaces, HA discs and polystyrene plates, were gently rinsed to leave adhered cells and to remove planktonic or loosely-bound microbes. […] After 24 hrs of incubation at 37° C. the surfaces were rinsed using physiological saline solution and transferred to 1 mL of 0.5% saponin (Sigma-Aldrich, St Louis, MO). The surfaces were vortex-mixed vigorously for 1 minute to detach cells. Subsequently, all microbial suspensions were diluted 10-1 to 10-9 times. Each dilution ([…]) was cultured on the appropriate stable medium (MacConkey, Columbia for P. aeruginosa and S. aureus, respectively) and incubated at 37° C. for 24 hrs. After this time, the microbial colonies were counted and the number of cells forming biofilm was assessed. Results were presented as the mean number of CFU per square millimeter surface±standard error of the mean. […]

[2] = system: S. aureus ATCC6538 biofilms; assay: Survival of S. aureus biofilm on pretreated, rinsed HA discs; format: cell-based, Staphylococcus aureus; details: for times more active than ciprofloxacin alone in achieving complete bactericidal action: allowing for molecular mass; for ability to prevent biofilm formation on pretreated HA (in words): pretreated HA discs; for concentration that inhibited all biofilm growth: pretreated, rinsed HA discs
Description: HA discs incubated in DMSO or phosphate buffer served as control samples. Next, discs were rinsed 3 times with sterile water. After rinsing, 2 mL of 0.5 MF of. S. aureus ATCC6538 were introduced to wells containing HA discs as a substrate for biofilm development and biofilms were formed as before.

[3] = system: Aggregatibacter actinomycetemcomitans biofilms on titanium implants; assay: Rat jawbone peri-implant osteomyelitis model, first animal experiment; format: in vivo, Sprague-Dawley rats; details: for activity compared with ciprofloxacin in multiple doses (in words): conjugate 10 mg/kg single dose versus ciprofloxacin 30 mg/kg total; for efficacy (in words): single dose 0.1 and 1 mg/kg
From the text: Since this BP-ciprofloxacin conjugate is novel and has not been tested in vivo, we performed an initial safety and efficacy study in an animal model of peri-implant osteomyelitis. This model is a unique in-house jawbone peri-implant osteomyelitis model that was developed specifically for translational value to study biofilm-mediated disease and host response in vivo (Freire, et al, Development of animal model for Aggregatibacter actinomycetemcomitans biofilm-mediated oral osteolytic infection: a preliminary study. J Periodontol 2011; 82:778-89). […] After biofilms are established on the implants in vitro, they are surgically transferred to the jawbone of each rat. Animals are anesthetized, the cheeks are retracted and a transmucosal osteotomy is performed so implants can be manually inserted into the osteotomy and secured. Two biofilm-inoculated implants are placed in each rat (n=12 rats and 24 implants) in the palatal bone bilaterally.
To determine appropriate dosing concentrations, we calculated approximate initial doses for the conjugate based on previous studies and pharmacokinetic data using similar target and release strategies and also rodents (Houghton, et al., Linking bisphosphonates to the free amino groups in fluoroquinolones: preparation of osteotropic prodrugs for the prevention of osteomyelitis. J Med Chem 2008; 51:6955-69; Morioka, et al., Design, synthesis, and biological evaluation of novel estradiol-bisphosphonate conjugates as bone-specific estrogens. Bioorg Med Chem 2010; 18:1143-8). We expected that increasing doses of 0.1, 1 and 10 mg/kg BP-ciprofloxacin molar equivalents will allow us to determine antimicrobial activity in 2 test animals per group based on sample size estimations and previous experience with the animal model (Freire, et al, Development of animal model for Aggregatibacter actinomycetemcomitans biofilm-mediated oral osteolytic infection: a preliminary study. J Periodontol 2011; 82:778-89). Animals were dosed via intraperitoneal injection under general anesthesia, and all compounds were constituted in sterile physiological injectable saline at appropriate pH. One week after pharmacotherapy, all animals were sacrificed and resection of peri-implant tissues was performed, and tissues were immediately homogenized and processed for quantitative assessment of microbial load. Animals were monitored throughout the study period for local or systemic adverse effects of pharmacotherapy.
This animal model is an in-house jawbone peri-implant osteomyelitis model designed specifically to study biofilm-mediated disease and host response in vivo (Freire, et al, Development of animal model for Aggregatibacter actinomycetemcomitans biofilm-mediated oral osteolytic infection: a preliminary study. J Periodontol 2011; 82:778-89). […] After biofilms were established on the implants in vitro, they were surgically transferred to the jawbone of each rat. For surgery, animals were anesthetized with 4% isoflurane inhalant initially followed by intraperitoneal injection of ketamine (80-90 mg/kg) plus xylazine (5-10 mg/kg). Then local anesthesia was given via infiltration injection of bupivicaine 0.25% at the surgical site. Buprenorphine sustained release (1.0-1.2 mg/kg) was then given subcutaneously as preemptive analgesia before making initial incisions. Once anesthetized, the buccal mucosa of each rat was retracted and a transmucosal osteotomy was performed with a pilot drill into the alveolar ridge in the natural diastema of the anterior palate. Implants were then manually inserted into the osteotomy and secured into the bone until the platform is at mucosal level.

[4] = 24 hrs of growth (Examples 5, 6)
[5] = conjugate, single dose 10 mg/kg intraperitoneal
[6] = ciprofloxacin, 10 mg/kg 3×/week (30 mg/kg total)

`O=C(O)c1cn(C2CC2)c2cc(N3CCN(C(=O)Oc4ccc(CC(P(=O)(O)O)P(=O)(O)O)cc4)CC3)c(F)cc2c1=O` [Compound 6, 1-cyclopropyl-7-(4-((4-(2,2-diphosphonoethyl)phenoxy)carbonyl)piperazin-1-yl)-6-fluoro-4-oxo-1,4-dihydroquinoline-3-carboxylic acid] was tested, and the “concentration at which bactericidal” value ([1]; acidic and basic conditions (Example 1)) was 50 µg/mL, the “concentration at which bactericidal” value ([1]; acidic and physiological conditions (Example 5)) was 50 µg/mL and the “activity against P. aeruginosa biofilm (in words)” value ([1]; listed as conjugate) was “improved bactericidal activity in basic conditions; also recorded: improved bactericidal activity in physiological conditions”. For the same compound, the “concentration at which most effective” value ([1]; physiological pH, also effective at acidic pH) was 8 µg/mL, the “times more active than ciprofloxacin alone in achieving complete bactericidal action” value [2] was 20 and the “times more active than ciprofloxacin alone in achieving complete bactericidal action” value ([2]; listed as BP-ciprofloxacin) was 20. For the same compound, the “ability to prevent biofilm formation on pretreated HA (in words)” value [2] was “superior antimicrobial activity”, the “ability to prevent biofilm formation on pretreated HA (in words)” value ([2]; listed as BCC) was “inhibited” and the “concentration that inhibited all biofilm growth” value ([2]; 24 hrs of growth (Example 1)) was 10 µg/mL. For the same compound, the “concentration that inhibited all biofilm growth” value [2, 4] was 10 µg/mL, the “greater bactericidal activity than multiple dosing of ciprofloxacin” value ([3]; conjugate 10 mg/kg single dose) was ~1 log and the “activity compared with ciprofloxacin in multiple doses (in words)” value (shortened to “activity compared with ciprofloxacin”) [3] was “nearly an order of magnitude greater activity than ciprofloxacin alone”. For the same compound, the “activity compared with ciprofloxacin” value ([3]; listed as BCC) was “an order of magnitude greater activity than the parent antibiotic ciprofloxacin alone; also recorded: approximately as effective as ciprofloxacin given at 30 mg/kg total dose”, the “activity compared with ciprofloxacin” value ([3]; listed as BP-ciprofloxacin) was “more than an order of magnitude greater activity than ciprofloxacin alone; also recorded: superior to multiple dosing of the parent antibiotic ciprofloxacin” and the “bacterial killing / bactericidal activity” value [3, 5] was 99%. The “reduction of bacterial load versus negative control” value [3, 5] was 2 log, the “efficacy (in words)” value ([3]; conjugate) was “little effect; also recorded: no efficacy; also recorded: ineffective” and the “efficacy (in words)” value ([3]; conjugate, listed as BP-ciprofloxacin) was “little effect; also recorded: not efficacious”.

In the case of `O=C(O)c1cn(C2CC2)c2cc(N3CCNCC3)c(F)cc2c1=O` [ciprofloxacin, reference compound], the “activity against P. aeruginosa biofilm (in words)” value [1] is reported as “no inhibitory or bactericidal activity; also recorded: inactive under either acidic or physiological conditions”, the “concentration that inhibited all biofilm growth” value ([2]; 24 hrs of growth (Example 1)) is reported as 100 µg/mL and the “concentration that inhibited all biofilm growth” value [2, 4] is reported as 100 µg/mL. For the same compound, the bacterial killing [3, 6] was 90% and the “reduction of bacterial load” value [3, 6] was 1 log.
